In US12630532B2, “Indole-substituted quinolines and their combination with Plk1 inhibitors for the treatment of cancer” (UNIVERSITY OF KENTUCKY RESEARCH FOUNDATION, priority 2021, dated 2026):

Columns and labels:
Format in all cases: cell-based
AMPK = AMPK activation (western blotting, pAMPK/pACC) in LS174T cells
Procedure: Western blotting were performed according to previous procedures (25). Cells were split into 12-well plates. After 24 hours, compounds at indicated final concentrations were added to each well for another 24 hours unless otherwise noted. DMSO was used as a control. Cells were lysed in the appropriate volume of lysis buffer: 50 mM HEPES, 100 mM NaCl, 2 mM EDTA, 1% (v/v) glycerol, 50 mM NaF, 1 mM Na3VO4, 1% (v/v) Triton X-100, with protease inhibitors. Cell lysates were centrifuged, and supernatants were mixed with 6× protein loading buffer and boiled. The obtained samples were analyzed with standard western blotting methods with indicated antibodies.

[1] = system: mitochondrial ETC complex I; experiment: Mitochondrial ETC complex activity measurements using PMP-permeabilized cells
Procedure: Mitochondrial ETC complex activity measurements were taken using the Agilent Seahorse Assay with XF PMP (Agilent, Santa Clara, CA) following manufacturer's instructions. Adherent monolayer cells were gently washed with mitochondrial assay solution (MAS) (220 mM mannitol, 70 mM sucrose, 10 mM KH2PO4, 5 mM MgCl2, 2 mM HEPES, 1 mM EGTA, and 0.2% (w/v) fatty acid free BSA) and cell growth media was replaced with MAS supplemented with 4 mM adenosine diphosphate (ADP), 10 mM pyruvate, and 1 nM PMP. Following calibration, the assay was immediately performed by measuring baseline with two cycles of 0.5 min mixing, 0.5 min waiting, and 2 min measuring. After baseline measurements, sequential injections of DMSO, compounds of interest or 2 μM rotenone, 10 mM succinate, 2 μM antimycin A, and a combination of 10 mM ascorbate and 100 μM TMPD were also performed with each followed by two cycles of 0.5 min mixing, 0.5 min waiting, and 2 min measuring. Data were then normalized to cell counts using the Biotek Cytation 1 (BioTek Instruments, Winooski, VT, USA).

[2] = system: mouse colon cancer organoids; experiment: Colon cancer organoids from Apc^f/+/Kras^LSL-G12D/Villin-Cre mouse model
Procedure: The colon cancer organoids were isolated from Apc^f/+/Kras^LSL-G12D/Villin-Cre mouse model (38). Using 48-well drug screening to assess how compounds affected organoid colony formation, the Matrigel containing organoids was digested by 300 μL dispase. The gel was removed by 1,000×5 min spinning. The organoids were digested into single cells by 1 mL Trypsin and washed with 10 mL of ADF12. For each well, 80 μL of Matrigel was added to the bottom and 1000 cells in 60 μL Matrigel were added to the top. The cells were cultured in 250 μL of 3D complete medium (Advanced DMEM/F12 supplemented with 1×N-2, 1×B-27, 1 mM N-acetylcysteine and 1% penicillin/streptomycin). The cells were treated with DMSO or testing compounds and total number of organoids with diameter greater than 50 μm were analyzed and manually counted using microscope.
After 3 days when organoids formed, fresh culture media were supplied, and compounds were added for additional 3 days. Organoid viability was measured using CellTiter-Glo® 3D Cell Viability Assay (Promega) following manufacturer's protocol.

## CN(C)c1ccc2cc(-c3cn(C)c4ccccc34)c(N)nc2c1 [ISQ-1, N^7,N^7-Dimethyl-3-(1-methyl-1H-indol-3-yl)quinoline-2,7-diamine]
AMPK
  AMPK activation: activated AMPK in a dose-dependent manner
[1]; pyruvate substrate
  ETC complex I inhibition (pyruvate/NADH-linked respiration): inhibited complex I
[1]; succinate added
  inhibition of complexes II, III, or IV (respiration after succinate): ruled out the possibility that ISQ-1 inhibited complexes II, III, or IV
[2]; 3-day treatment after organoids formed
  organoid growth (CellTiter-Glo 3D viability): inhibited organoid growth in a dose-dependent manner
[2]; day 7
  tumor organoid formation from single cells: inhibited tumor organoid formation from single cells
